According to US4416885A, “Use of isopropylaminopyrimidine in the chemotherapy of muscular dystrophy, myopathy and myotonia” (priority 1982, dated 1983):

What was measured:
Assay type in all cases: in vivo, chicken
[1] = test system: dystrophic New Hampshire chickens, line 413; test: Flip test (flip number FN, out of five attempts)
Method: The compound IAPP was tested on dystrophic New Hampshire chickens, line 413, and Imperial College (London, England) sub-line of the original Davis, University of California strain. The chickens are homozygous for muscular dystrophy, the disease appearing with 100% incidence.
The animal is placed on its back in the supine position. The number of times it is able to rise, out of five attempts, is known as the flip number (FN). The normal chicken invariably scores 5 (out of 5 attempts), whereas in an untreated dystrophic chicken, the number declines to zero in 6-8 weeks. The test is performed once every […], seven days; more frequent assessment introduces an exercise factor and is not recommended.
The drug was administered daily in water, injected intra-peritoneally, the amount being adjusted on a weekly basis according to the animal's weight.
(§1) Finally, oral therapy with IAPP was undertaken at gradually increasing dosages up to 1 g/Kg/day. The parameters (physical, biochemical and histological) measured previously were again used to test the efficacy of the drug; five different dosages were used orally, each being given for 30-60 days, daily (Tables VII-XI). A total of 75 animals were treated in the current study with IAPP and 70 control animals were used.

[2] = test system: plasma CPK (creatine phosphokinase); test: Plasma CPK
Method: (§2) Chemotherapy was assessed by application of seven different parameters: physical tests of muscular disability, namely the flip test and wing apposition (W.A.) measurements; biochemical assays of serum and muscle enzume levels of creatine phosphokinase (CPK), pyruvate kinase (PK) and acetylcholinesterase (AChE); and histological comparisons of treated and untreated muscle. Toxicity studies (weight loss, etc.) were also used. A very comprehensive profile of the drug was thus obtained which related to all the known, highly characteristic features of the disease which are applicable to both the animal model and the human.
Plasma CPK rises dramatically in the dystrophic chicken as it does also in the human disease. The normal chicken has 200-300 U/l CPK, compared to about 20,000 U/l in the untreated dystrophic chicken at its peak. It rises to these high levels over a period of two months and is, therefore, a significant index of the disease. […]
as §1

[3] = test system: plasma AChE (acetylcholinesterase); test: Plasma AChE; parameters: AChE: unit not given here
Method: as §2
The elevation of this enzyme in the dystrophic chicken occurs from 8 days and reaches a plateau at 100 days, compared to the normal animal where the levels continue to decline slowly. […]
as §1

[4] = 200 mg/Kg i.p. daily for 30 days, day 28 ex ovo
[5] = 200 mg/Kg i.p. daily for 30 days, day 45 ex ovo
[6] = 200 mg/Kg i.p. daily for 30 days, day 56 ex ovo
[7] = 200 mg/Kg i.p. daily for 30 days, day 84 ex ovo
[8] = 300 mg/Kg i.p. daily for 30 days, day 28 ex ovo
[9] = 300 mg/Kg i.p. daily for 30 days, day 45 ex ovo
[10] = 300 mg/Kg i.p. daily for 30 days, day 56 ex ovo
[11] = 300 mg/Kg i.p. daily for 30 days, day 84 ex ovo
[12] = 300 mg/Kg i.p. three times weekly for 30 days, day 28 ex ovo
[13] = 300 mg/Kg i.p. three times weekly for 30 days, day 45 ex ovo
[14] = 300 mg/Kg i.p. three times weekly for 30 days, day 84 ex ovo
[15] = Exp. 2, 40 mg/Kg i.p. daily, day 42-48
[16] = Table VII, oral 200 mg/Kg, 60 days, day 28 ex ovo
[17] = Table VII, oral 200 mg/Kg, 60 days, day 35 ex ovo
[18] = Table VII, oral 200 mg/Kg, 60 days, day 45 ex ovo
[19] = Table VII, oral 200 mg/Kg, 60 days, day 60 ex ovo
[20] = oral 300 mg/Kg daily, day 28 ex ovo
[21] = oral 300 mg/Kg daily, day 35 ex ovo
[22] = oral 450 mg/Kg daily for 45 days, day 28 ex ovo
[23] = oral 450 mg/Kg daily for 45 days, day 35 ex ovo
[24] = oral 450 mg/Kg daily for 45 days, day 50 ex ovo
[25] = oral 600 mg/Kg daily, day 28 ex ovo
[26] = oral 600 mg/Kg daily, day 35 ex ovo
[27] = oral 600 mg/Kg daily, day 50 ex ovo
[28] = oral 1 g/Kg daily, day 28 ex ovo
[29] = oral 1 g/Kg daily, day 35 ex ovo

CC(C)Nc1ncccn1.O=P(O)(O)O [IAPP, 2-isopropylaminopyrimidine orthophosphate]
FN (out of 5 attempts), treated ([1]; 200 mg/Kg i.p. daily for 30 days, day 28 ex ovo, control 4.9): 5.0
FN (out of 5 attempts), treated ([1]; 200 mg/Kg i.p. daily for 30 days, day 45 ex ovo, control 3.5): 3.3
FN (out of 5 attempts), treated ([1]; 200 mg/Kg i.p. daily for 30 days, day 84 ex ovo, control 0.7): 1.4
Mean flip number ([1]; 200 mg/Kg i.p., further 56 days after injections ceased): slightly improved
FN (out of 5 attempts), treated ([1]; 300 mg/Kg i.p. daily for 30 days, day 28 ex ovo, control 4.9): 4.5
FN (out of 5 attempts), treated ([1]; 300 mg/Kg i.p. daily for 30 days, day 45 ex ovo, control 3.5): 2.3
FN (out of 5 attempts), treated ([1]; 300 mg/Kg i.p. daily for 30 days, day 84 ex ovo, control 0.7): 0.1
FN (out of 5 attempts), treated ([1]; 300 mg/Kg i.p. three times weekly for 30 days, day 28 ex ovo, control 4.9): 4.5
FN (out of 5 attempts), treated ([1]; 300 mg/Kg i.p. three times weekly for 30 days, day 45 ex ovo, control 3.5): 2.7
FN (out of 5 attempts), treated ([1]; 300 mg/Kg i.p. three times weekly for 30 days, day 84 ex ovo, control 0.7): 0.6
FN Treated (out of 5 attempts) ([1]; Exp. 2, 40 mg/Kg i.p. daily, day 7-13, control 4.5): 4.9
FN Treated (out of 5 attempts) ([1]; Exp. 2, 40 mg/Kg i.p. daily, day 14-20, control 4.8): 5.0
FN Treated (out of 5 attempts) ([1]; Exp. 2, 40 mg/Kg i.p. daily, day 35-41, control 2.8): 5.0
FN Treated (out of 5 attempts) ([1]; Exp. 2, 40 mg/Kg i.p. daily, day 49-55, control 2.0): 4.5
FN Treated (out of 5 attempts) ([1]; Exp. 2, 40 mg/Kg i.p. daily, day 56-62, control 1.4): 3.8
FN Treated (out of 5 attempts) ([1]; Exp. 2, 40 mg/Kg i.p. daily, day 63-71, control 0.9): 2.3
FN Treated (out of 5 attempts) ([1]; Exp. 3, 70 mg/Kg i.p. daily, day 14-20, control 5): 5
FN Treated (out of 5 attempts) ([1]; Exp. 3, 70 mg/Kg i.p. daily, day 21-27, control 4.8): 5
FN Treated (out of 5 attempts) ([1]; Exp. 3, 70 mg/Kg i.p. daily, day 28-34, control 5): 5
FN (out of 5 attempts), treated ([1]; Table VII, oral 200 mg/Kg, 60 days, day 28 ex ovo, control 5.0): 4.1
FN (out of 5 attempts), treated ([1]; Table VII, oral 200 mg/Kg, 60 days, day 35 ex ovo, control 4.4): 3.6
FN (out of 5 attempts), treated ([1]; Table VII, oral 200 mg/Kg, 60 days, day 45 ex ovo, control 3.2): 2.4
FN (out of 5 attempts), treated ([1]; Table VII, oral 200 mg/Kg, 60 days, day 60 ex ovo, control 2.8): 1.8
FN (out of 5 attempts), treated ([1]; oral 300 mg/Kg daily, day 28 ex ovo, control 4.8): 4.7
FN (out of 5 attempts), treated ([1]; oral 300 mg/Kg daily, day 35 ex ovo, control 4.7): 4.4
FN (out of 5 attempts), treated ([1]; oral 450 mg/Kg daily for 45 days, day 28 ex ovo, control 5.0): 5.0
FN (out of 5 attempts), treated ([1]; oral 450 mg/Kg daily for 45 days, day 35 ex ovo, control 3.6): 4.8
FN (out of 5 attempts), treated ([1]; oral 450 mg/Kg daily for 45 days, day 45 ex ovo, control 1.7): 2
FN (out of 5 attempts), treated ([1]; oral 450 mg/Kg daily for 45 days, day 50 ex ovo, control 1.4): 1
FN (out of 5 attempts), treated ([1]; oral 600 mg/Kg daily, day 28 ex ovo, control 5.0): 5.0
FN (out of 5 attempts), treated ([1]; oral 600 mg/Kg daily, day 35 ex ovo, control 3.6): 4.3
FN (out of 5 attempts), treated ([1]; oral 600 mg/Kg daily, day 45 ex ovo, control 1.7): 2.7
FN (out of 5 attempts), treated ([1]; oral 600 mg/Kg daily, day 50 ex ovo, control 1.4): 2.3
FN (out of 5 attempts), treated ([1]; oral 1 g/Kg daily, day 28 ex ovo, control 1.7): 3.5
Birds able to rise from supine 5 times out of 5 attempts ([1]; oral 1 g/Kg daily, first four weeks, dystrophic controls 20%): Fifty
CPK [2, 4]: 478 mU/ml
CPK, % change from control [2, 4]: -61%
CPK [2, 5]: 4810 mU/ml
CPK, % change from control [2, 5]: -40%
CPK [2, 6]: 5412 mU/ml
CPK, % change from control [2, 6]: -48%
CPK [2, 7]: 13,540 mU/ml
CPK, % change from control [2, 7]: -36%
CPK [2, 8]: 651 mU/ml
CPK, % change from control [2, 8]: -46%
CPK [2, 9]: 4505 mU/ml
CPK, % change from control [2, 9]: -44%
CPK [2, 10]: 7629 mU/ml
CPK, % change from control [2, 10]: -27%
CPK [2, 11]: 24,248 mU/ml
CPK, % change from control [2, 11]: +15%
CPK [2, 12]: 651 mU/ml
CPK, % change from control [2, 12]: -46%
CPK [2, 13]: 6076 mU/ml
CPK, % change from control [2, 13]: -24%
CPK ([2]; 300 mg/Kg i.p. three times weekly for 30 days, day 56 ex ovo): 7944 mU/ml
CPK [2, 14]: 16,602 mU/ml
CPK, % change from control [2, 14]: -21%
% CPK Change vs untreated dystrophic controls ([2]; Exp. 2, 40 mg/Kg i.p. daily, day 7-13): -8%
% CPK Change vs untreated dystrophic controls ([2]; Exp. 2, 40 mg/Kg i.p. daily, day 14-20): -46%
% CPK Change vs untreated dystrophic controls ([2]; Exp. 2, 40 mg/Kg i.p. daily, day 21-27): -21%
% CPK Change vs untreated dystrophic controls ([2]; Exp. 2, 40 mg/Kg i.p. daily, day 28-34): -59%
% CPK Change vs untreated dystrophic controls ([2]; Exp. 2, 40 mg/Kg i.p. daily, day 35-41): -57%
% CPK Change vs untreated dystrophic controls [2, 15]: -72%
% CPK Change vs untreated dystrophic controls ([2]; Exp. 2, 40 mg/Kg i.p. daily, day 56-62): -47%
% CPK Change vs untreated dystrophic controls ([2]; Exp. 2, 40 mg/Kg i.p. daily, day 63-71): -32%
% CPK Change vs untreated dystrophic controls ([2]; Exp. 3, 70 mg/Kg i.p. daily, day 21-27): -51%
% CPK Change vs untreated dystrophic controls ([2]; Exp. 3, 70 mg/Kg i.p. daily, day 28-34): -53%
CPK [2, 16]: 3496 mU/ml
CPK, % change from control [2, 16]: -31%
CPK [2, 17]: 7336 mU/ml
CPK, % change from control [2, 17]: -1%
CPK [2, 18]: 9638 mU/ml
CPK, % change from control [2, 18]: -18%
CPK [2, 19]: 10,860 mU/ml
CPK, % change from control [2, 19]: -24%
Reduction in plasma CPK levels ([2]; oral 200 mg/Kg, 60 days): moderate reduction
CPK [2, 20]: 3794 mU/ml
CPK, % change from control [2, 20]: -23%
CPK [2, 21]: 6690 mU/ml
CPK, % change from control [2, 21]: -30%
CPK [2, 22]: 4713 mU/ml
CPK, % change from control [2, 22]: -18%
CPK [2, 23]: 6483 mU/ml
CPK, % change from control [2, 23]: -24%
CPK [2, 24]: 17,975 mU/ml
CPK, % change from control [2, 24]: +30%
CPK [2, 25]: 2658 mU/ml
CPK, % change from control [2, 25]: -53%
CPK [2, 26]: 4712 mU/ml
CPK, % change from control [2, 26]: -45%
CPK [2, 27]: 9084 mU/ml
CPK, % change from control [2, 27]: -34%
CPK [2, 28]: 2217 mU/ml
CPK, % change from control [2, 28]: -63%
CPK [2, 29]: 4018 mU/ml
CPK, % change from control [2, 29]: -68%
AChE [3, 5]: 60.4
AChE, % change from control [3, 5]: -29%
AChE [3, 7]: 87
AChE, % change from control [3, 7]: -46%
AChE [3, 9]: 48.4
AChE, % change from control [3, 9]: -43%
AChE [3, 13]: 62.9
AChE, % change from control [3, 13]: -27%
AChE [3, 14]: 90
AChE, % change from control [3, 14]: -45%
% AChE Change vs untreated dystrophic controls [3, 15]: -55%
AChE [3, 17]: 77.8
AChE, % change from control [3, 17]: -6%
AChE [3, 22]: 520
AChE, % change from control [3, 22]: -12%
AChE [3, 25]: 46.9
AChE, % change from control [3, 25]: -21%
AChE [3, 29]: 53.9
AChE, % change from control [3, 29]: -47%
